Assay results published in the RepoRT retention time repository.

Assay: HILIC, HILICON iHILIC-(P) Classic, HILIC, PEEK, 100 × 2.1 mm, 5 µm, 40 °C, 0.15 mL/min, estimated dead time 1.5 min; A: water + 20 mM ammonium carbonate + 5 µM medronic acid; B: 10% water + 90% acetonitrile + 2 mM ammonium carbonate + 0.5 µM medronic acid; gradient (min/%B) 0/95 18/55 19/20 22/20 22.5/95 24/95 26/95
Settings: stereoisomer not certain
Work on `O=C(O)CC(O)C(=O)O` (centres undefined) [Malic Acid] yielded an LC retention time of 11.9 min. `NC(CC(=O)O)C(=O)O` (centres undefined) [Aspartic Acid] showed an LC retention time of 10.3 min. With `NCCCCC(N)C(=O)O` (centres undefined) [Lysine] the LC retention time was 18.7 min. In the case of `O=P(O)(O)OCC1OC(O)C(O)C(O)C1O` (centres undefined) [Glucose-6-phosphate], the LC retention time is reported as 13.7 min. With `NC(CCC(=O)O)C(=O)O` (centres undefined) [Glutamic acid] the LC retention time was 9.88 min. Work on `CC(=O)NC1C(OP(=O)(O)OP(=O)(O)OCC2OC(n3ccc(=O)[nH]c3=O)C(O)C2O)OC(CO)C(O)C1O` (centres undefined) [UDP-GlcNAc] yielded an LC retention time of 12 min. Work on `NC(CCC(=O)NC(CS)C(=O)NCC(=O)O)C(=O)O` (centres undefined) [GSH] yielded an LC retention time of 9.58 min. For `NC(=O)CCC(N)C(=O)O` (centres undefined) [Glutamine], the LC retention time was 10.2 min. With `O=P(O)(O)OCC1OC(O)C(O)C1O` (centres undefined) [Pentose-phosphate] the LC retention time was 11.5 min. `O=C(O)CCC(=O)C(=O)O` [2-Oxoglutaric acid] showed an LC retention time of 13 min. With `O=C(O)CC(C(=O)O)C(O)C(=O)O` (centres undefined) [Isocitric acid] the LC retention time was 15.9 min. Work on `C=C(OP(=O)(O)O)C(=O)O` [PEP] yielded an LC retention time of 14.6 min. Compound `NC(=O)CC(N)C(=O)O` (centres undefined) [Asparagine] has an LC retention time of 10.4 min. For `O=P(O)(O)OC1OC(CO)C(O)C(O)C1O` (centres undefined) [Glucose-1-phosphate], the LC retention time was 12.3 min. For `Nc1ncnc2c1ncn2C1OC(COP(=O)(O)OP(=O)(O)OP(=O)(O)O)C(O)C1O` (centres undefined) [ATP], the LC retention time was 14.6 min. Compound `CC(=O)SCCNC(=O)CCNC(=O)C(O)C(C)(C)COP(=O)(O)OP(=O)(O)OCC1OC(n2cnc3c(N)ncnc32)C(O)C1OP(=O)(O)O` (centres undefined) [Acetyl-CoA] has an LC retention time of 10 min. `NC(=O)c1ccc[n+](C2OC(COP(=O)(O)OP(=O)(O)OCC3OC(n4cnc5c(N)ncnc54)C(OP(=O)(O)O)C3O)C(O)C2O)c1` (centres undefined) [NADP] showed an LC retention time of 14.5 min. Compound `O=C(O)C=CC(=O)O` [Fumaric Acid] has an LC retention time of 12.7 min. `NC(=O)c1ccc[n+](C2OC(COP(=O)(O)OP(=O)(O)OCC3OC(n4cnc5c(N)ncnc54)C(O)C3O)C(O)C2O)c1` (centres undefined) [NAD] gave an LC retention time of 10.3 min. In the case of `O=C(O)CC(O)(CC(=O)O)C(=O)O` [Citric acid], the LC retention time is reported as 15.3 min. `NC(N)=NCCCC(N)C(=O)O` (centres undefined) [Arginine] showed an LC retention time of 18.9 min. Work on `Nc1ncnc2c1ncn2C1OC(COP(=O)(O)OP(=O)(O)O)C(O)C1O` (centres undefined) [ADP] yielded an LC retention time of 12 min. `NC(=O)C1=CN(C2OC(COP(=O)(O)OP(=O)(O)OCC3OC(n4cnc5c(N)ncnc54)C(O)C3O)C(O)C2O)C=CC1` (centres undefined) [NADH] showed an LC retention time of 9.88 min. For `NC(CCC(=O)NC(CSSCC(NC(=O)CCC(N)C(=O)O)C(=O)NCC(=O)O)C(=O)NCC(=O)O)C(=O)O` (centres undefined) [GSSG], the LC retention time was 15.1 min. In the case of `Nc1ncnc2c1ncn2C1OC(COP(=O)(O)O)C(O)C1O` (centres undefined) [AMP], the LC retention time is reported as 10.4 min. `O=C(O)CCC(=O)O` [Succinic Acid] gave an LC retention time of 11.2 min. Work on `O=P(O)(O)OCC(O)CO` (centres undefined) [Glycerol-3-phosphate] yielded an LC retention time of 11.1 min. In the case of `O=C(CO)C(O)C(O)C(O)COP(=O)(O)O` (centres undefined) [Fructose 6-phosphate], the LC retention time is reported as 12.3 min. With `CC(O)C(=O)O` (centres undefined) [Lactic Acid] the LC retention time was 2.68 min. Compound `O=P(O)(O)OCC1OC(O)(COP(=O)(O)O)C(O)C1O` (centres undefined) [Fructose-1,6-bisphosphate] has an LC retention time of 16.3 min. Compound `Nc1ncnc2c1ncn2C1OC(CO)C(O)C1O` (centres undefined) [Adenosine] has an LC retention time of 3.83 min. `CC(C)(COP(=O)(O)OP(=O)(O)OCC1OC(n2cnc3c(N)ncnc32)C(O)C1OP(=O)(O)O)C(O)C(=O)NCCC(=O)NCCS` (centres undefined) [CoenzymeA] showed an LC retention time of 11.6 min. In the case of `NC(=O)C1=CN(C2OC(COP(=O)(O)OP(=O)(O)OCC3OC(n4cnc5c(N)ncnc54)C(OP(=O)(O)O)C3O)C(O)C2O)C=CC1` (centres undefined) [NADPH], the LC retention time is reported as 16.4 min. `O=C(CO)COP(=O)(O)O` [Triose phosphate] showed an LC retention time of 11.4 min.
